The values below come from paper PMC3911823 (The FEBS journal, 2011).

Numbering of substitutions follows the chain as printed. Entries after “also recorded” stand apart in the source; their conditions may differ.

In data set [1] the target is T1, P450 2B4 L437A (Oryctolagus cuniculus, UniProt P00178, L437A).
T1 sequence (P00178 with tags, fused parts or gaps L437A limits assumed): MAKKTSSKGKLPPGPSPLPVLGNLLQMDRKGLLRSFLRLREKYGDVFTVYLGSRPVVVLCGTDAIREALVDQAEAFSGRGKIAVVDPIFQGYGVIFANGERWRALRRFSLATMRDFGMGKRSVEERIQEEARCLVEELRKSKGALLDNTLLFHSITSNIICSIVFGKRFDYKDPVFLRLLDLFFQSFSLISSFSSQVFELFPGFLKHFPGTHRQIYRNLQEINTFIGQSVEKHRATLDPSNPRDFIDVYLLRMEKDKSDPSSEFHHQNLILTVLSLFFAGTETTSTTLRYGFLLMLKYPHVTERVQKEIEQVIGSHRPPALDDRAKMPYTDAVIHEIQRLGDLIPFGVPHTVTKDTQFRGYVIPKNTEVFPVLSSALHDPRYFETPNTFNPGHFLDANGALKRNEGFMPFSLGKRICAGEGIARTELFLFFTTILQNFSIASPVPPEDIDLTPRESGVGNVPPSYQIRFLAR
Format: biochemical, rabbit (Oryctolagus cuniculus).

Data set [2] has as its target T2, P450 2B4 H172F (Oryctolagus cuniculus, UniProt P00178, H172F).
T2 sequence (P00178 with tags, fused parts or gaps H172F limits assumed): T1 sequence (P00178 with tags, fused parts or gaps L437A limits assumed) with H153F, A418L

In data set [3] the target is T3, P450 2B4 E474Q (Oryctolagus cuniculus, UniProt P00178, E474Q).
T3 sequence (P00178 with tags, fused parts or gaps E474Q limits assumed): T1 sequence (P00178 with tags, fused parts or gaps L437A limits assumed) with A418L, E455Q
Format: biochemical, rabbit (Oryctolagus cuniculus).

The target of data set [4] is T4, P450 2B4 wild type (Oryctolagus cuniculus, UniProt P00178).
T4 sequence (P00178 with tags, fused parts or gaps limits assumed): T1 sequence (P00178 with tags, fused parts or gaps L437A limits assumed) with A418L
Format: biochemical, rabbit (Oryctolagus cuniculus). The settings on record: 2B4 WT.

Data set [5] has as its target T5, P450 2B4 H172A (Oryctolagus cuniculus, UniProt P00178, H172A).
T5 sequence (P00178 with tags, fused parts or gaps H172A limits assumed): T1 sequence (P00178 with tags, fused parts or gaps L437A limits assumed) with H153A, A418L
Format: biochemical, rabbit (Oryctolagus cuniculus).

For data set [6], the target named is T3, P450 2B4 E474Q. The data set can be described thus: Inhibition of 7-EFC O-deethylation by imidazole inhibitors. It is filed as biochemical, rabbit (Oryctolagus cuniculus).
Data set [7] addresses T4, P450 2B4 wild type. The data set is described as above. Format: biochemical, rabbit (Oryctolagus cuniculus).

For orientation: kcat means the number of substrate molecules converted per active site and unit of time at saturation. Regarding `O=c1ccc2nc3ccc(OCc4ccccc4)cc3oc-2c1` [7-BR, 7-benzyloxyresorufin], the kcat in data set [1] was found to be 0 s⁻¹; in data set [2] it was 0 s⁻¹; in data set [3], 0.0283 ± 0.005 s⁻¹; in data set [4] (substrate O-dealkylation), 0.127 ± 0.005 s⁻¹; in data set [5] it was 0.0067 ± 0.0017 s⁻¹. Also, the kcat/S50 in data set [1] worked out at 0; in data set [2] it was 0; in data set [3], 0.35; in data set [4] it was 3.3; in data set [5], 0.08. In addition, the “substrate turnover (activity)” value was “did not turn over; also recorded: no activity” in data set [1] and “inactive” in data set [2]. For the same compound, the “decrease (change) in kcat versus wild type” value in data set [3] was ~ 4.5 fold; in data set [5], ~ 19 fold. Further, the S50 in data set [3] (Hill equation) was 4.8 ± 0.5 µM; in data set [4] (Hill equation) it was 2.3 ± 0.5 µM; in data set [5] (Hill equation), 5.0 ± 0.8 µM.

What is called IC50 is the midpoint of a concentration-inhibition curve. A higher IC50 goes with weaker potency. As for `Clc1ccc(-c2c[nH]cn2)cc1` [4-CPI, 4-(4-chlorophenyl)imidazole], the IC50 worked out at 500 nM in data set [6] and 40 nM in data set [7]. Further, the “Ratio 4-CPI IC50/Bifonazole IC50” value in data set [6] (2B4 E474Q, 50 μM 7-EFC as substrate) is on record as 0.62; in data set [7] (2B4 WT, 50 μM 7-EFC as substrate) it was 0.04.
